Data set [1] is described as follows: Side effects of cholinesterase inhibitors in rats. Details: animals with facial clonus / animals with sedation: dose or concentration left out as unconfirmed.
Another data set has as its system Alzheimer patients. The note with it: i.v. administration; cited from earlier work.
For data set [2], the system named is 3H-choline accumulation and K+ evoked acetylcholine release. Briefly: 3H-choline accumulation and K+ evoked acetylcholine release in vitro. The note with it: concentration giving 100% inhibition of cholinesterase in vitro; after each of two doses.
The test system of data set [3] is cholinesterase. Conditions: when normal acetylcholine levels are regained (within 24 hours) after acute administration; cited from earlier work.
Data set [4] relates to brain cholinesterase. The note with it: cited from earlier work.
Data set [5] concerns acetylcholine. The note with it: acute administration, all brain regions; cited from earlier work.
The conditions of data set [6]: with loss of enzymatic inhibitory activity; cited from earlier work.
Data set [7] concerns acetylcholine. The note with it: cortex, striatum, hippocampus and midbrain; cited from earlier work.
Another data set deals with plasma cholinesterase. Briefly: Plasma cholinesterase inhibition by naled, DDVP and metrifonate. Format: biochemical. The text has this: Unlike metrifonate, which acts as a slow release formulation, naled degrades rapidly in vivo to the metabolite DDVP. […] The slightly lower values in inhibition observed for naled than that of DDVP can be attributed to its higher molecular weight. […] All the cholinesterase inhibition activity of naled is a result of the formation of DDVP.

Data set [8] deals with brain cholinesterase. Briefly: Cholinesterase activity in rat after intramuscular inhibitor. It is filed as in vivo. Conditions: for activity of cholinesterase: 80 mg/Kg intramuscular.
Data set [9] has as its system acetylcholine. Conditions: 125 mg/kg intraperitoneal, simultaneous with inhibition; cited from earlier work.
The nature of data set [10]: Side effects in Alzheimer's disease patients on metrifonate. Format: in vivo. Here is the method: (§1) Patients were tested using the Alzheimer's Disease Assessment Scale (ADAS) (Rosen et al 1984), Mini Mental State Examination (Folstein et al 1975), a Clincial Global Assessment Scale (Guy 1973) and a rating scale for side effects. A laboratory battery to assess hematopoietic, hepatic, urinary and cardiac status, physical examination, vital signs and measurement of blood cholinesterase activities were completed. Patients were then given in a single oral dose under open conditions metrifonate 2.5 mg/Kg and 5 mg/Kg on successive weeks and reassessed 1, 4 and 7 days after the 2.5 mg/Kg dose and 4 and 7 days after the 5 mg/Kg dose. Patients were next administered metrifonate one month later after a second baseline assessment (blood cholinesterase have returned to initial values by 1 month) and were given on four successive weeks 7.5 mg/Kg, 7.5 mg/Kg, 15 mg/Kg and 15 mg/Kg and assessed 7 days after each dosing prior to administration of the next dose. At each assessment all the cognitive and medical studies at baseline were repeated.
(§2) In sum we have successfully administered metrifonate to 15 patients (4-16 weeks of once weekly drug) without the appearance of side effects except for nausea and vomiting in four patients that has not reoccurred following administration of the highest dose as a divided dose over two days. […]

The test system of data set [11] is Alzheimer's disease patients. Briefly: Open metrifonate study in Alzheimer's disease patients, ADAS. It is filed as in vivo. As for the experimental part: We have administered metrifonate to 15 Alzheimer's disease patients. Patients were diagnosed using Diagnostic Statistical Manual IIIR criteria. […] Patients with moderately severe Alzheimer's disease were accepted to explore for effects of severity on drug response.
as §1
To identify responders we used the criterion of an improvement of 4 points on the ADAS. Among 5 patients who have received all four dosage levels we have identified 5 as responders, among 10 patients who have received both the 2.5 and 5 mg/Kg doses we have identified 5 responders for a total of 10 responders identified. […] The longest term patients (n=5) were on metrifonate for a total of four months.
In the completed patients the preferred dose, defined as maximum improvement without interfering side effects, was identified. Best doses ranged from 2.5 to 7.5 mg/Kg. Lower doses of about 0.5 mg/Kg were also operable.

For data set [12], the system named is cholinesterase. Briefly: Cholinesterase activity in rat brain regions after intracerebroventricular metrifonate. It is filed as in vivo. Conditions: 2.5 mg intracerebroventricularly, injected side, 30 min. As for the experimental part:
(§3) Levels of acetylcholine increased by 45% at 45 min. then returned to normal by 120 min. When metrifonate (2.5 mg) was given intracerebroventricularly the activity of cholinesterase decreased in the injected side at 30 min. to 20% in hippocampus, 22% in the medulla, 50% in the cerebellum, 58% in the striatum and 72% in the cortex.

Data set [13] deals with plasma acetycholinesterase. Conditions: in vivo; cited from earlier work.
The test system of data set [14] is brain acetylcholinesterase. The note with it: 125 mg/kg intraperitoneal, within 15 minutes; cited from earlier work.
The subject of the next data set is acetylcholinesterase. The note with it: cited from earlier work.
The test system of data set [15] is acetylcholine. Briefly: Acetylcholine levels in rat brain regions after intracerebroventricular metrifonate. It is filed as in vivo. The note with it: 2.5 mg intracerebroventricularly. As for the experimental part:
as §3

The conditions of data set [16]: in vivo; cited from earlier work.
Data set [17] concerns acetylcholine. Briefly: Acetylcholine levels in rat brain after one or two consecutive administrations. Format: in vivo. From the text:
The second administration of the drugs was timed so as to allow acetylcholine levels to return to approximately (+12%) control levels and the concentration of the drug was the highest that would allow 100% survival.

In data set [18] the test system is cholinesterase and acetylcholinesterase in blood. Briefly: Blood cholinesterase activities in Alzheimer's disease patients on metrifonate. Format: in vivo. The note with it: 15 patients, 4-16 weeks of once weekly drug. Here is the method:
as §1, §2

The mark [19] stands for this setting: physostigmine i.m., tetrahydroaminoacridine 15 mg/Kg.
[20] abbreviates: tetrahydroaminoacridine 15 mg/Kg.

We go through five compounds from patent US4950658A, “Method of medical treatment of Alzheimer's disease” (priority 1988, dated 1990).

As to `CNC(=O)Oc1ccc2c(c1)[C@]1(C)CCN(C)[C@@H]1N2C` [physostigmine], the “animals with splay of hind limbs” value in [1] (physostigmine 300 mg/Kg i.m.) worked out at 25%. Also, in [1] (physostigmine i.m.), the “animals with facial clonus” value came to 15% and the animals with sedation is reported as 10%. In data set [1] (setting [19]), this compound returned an animals with fasciculations of 60% and an animals with tremor of 30%. Further, the “studies that have shown improvement in memory” value with Alzheimer patients is reported as 6 out of 9. The 3H acetylcholine release entry in data set [2] is reported as “significantly more”.
With `COP(=O)(OC)OC=C(Cl)Cl` [DDVP, 2,2 dichlorovinyl dimethyl phosphate], in the data set with cholinesterase [3], the cholinesterase still inhibited is 35%. For the same compound, the “time to become active as inhibitor of brain cholinesterase” value with brain cholinesterase [4] (in vivo) was “one”. The “inhibition of brain cholinesterase” value in the data set on brain cholinesterase [4] (maximal (up to)) is on record as “up to 96%”. The “time to regain normal acetylcholine levels” value with acetylcholine [5] is at most 24 h. In [6], the “inactivation by oxidative metabolism” value is “rapidly inactivated”. In the data set with acetylcholine [7], the “time to peak accumulation of acetylcholine” value is at most 5 min.
On to `COP(=O)(OC)C(O)C(Cl)(Cl)Cl` (stereo not drawn) [metrifonate], for which, in [1] (metrifonate 80 mg/Kg 1M), the seizures result was “did not occur”, the survival entry is “all animals survived” and the “time at which symptoms developed after the injection” value was 20 to 35 min. Further, the “side effects compared with the other two drugs” value in data set [1] (metrifonate 80 mg/Kg 1M vs physostigmine and tetrahydroaminoacridine) is “less frequent and less severe”. The “increase necessary to obtain the same amount of plasma cholinesterase inhibition” value with plasma cholinesterase (relative to naled/DDVP) turned out to be 10 fold. Also, the activity of cholinesterase in the data set on brain cholinesterase [8] (30 min) was determined as 26%. In addition, the activity of cholinesterase in the data set on brain cholinesterase [8] (180 min) was found to be 50%. Besides, in the data set with brain cholinesterase [8] (360 min), the activity of cholinesterase amounted to 74%. In the data set on brain cholinesterase [8] (at the doses used), the peak cholinesterase inhibition came to 85% and the “time of peak cholinesterase inhibition” value was 30 min. In addition, in the data set on acetylcholine [9], the change in acetylcholine result is listed as “increase”. Further, the “patients with nausea and vomiting” value in data set [10] (15 patients, 4-16 weeks of once weekly drug) is “four”. Further, the “adverse, side or toxic effects” value in data set [10] (up to 15 mg/Kg body weight/week, except occasional nausea and vomiting) was “have not occurred”. Also, in [11] (15 mg/KG), the “effect of the highest dose on cognitive performance” value is given as “deterioration in cognitive performance”. In [11] (0.5 to 15 mg/Kg body weight/week, significant number of Alzheimer's disease patients), the “clinical effect of once weekly dosing” value is “improvement in memory, cognition and other behaviors”. In data set [11] (15 patients), the “total of responders identified” value is 10. Besides, in [11] (about 0.5 mg/Kg), the “effect of lower doses” value was “operable”. Besides, the “change on the ADAS in responders” value in data set [11] (all responders) was at least 9. The “responders (improvement of 4 points on the ADAS)” value in data set [11] (among 5 patients who received all four dosage levels) came out at 5. For the same compound, the “responders (improvement of 4 points on the ADAS)” value in data set [11] (among 10 patients who received both the 2.5 and 5 mg/Kg doses) is 5. In the data set with cholinesterase [12], the “activity of cholinesterase, cerebellum” value is given as 50%; the “activity of cholinesterase, cortex” value is given as 72%; the “activity of cholinesterase, hippocampus” value worked out at 20%; the “activity of cholinesterase, medulla” value was 22%. Further, the “activity of cholinesterase, striatum” value in the data set with cholinesterase [12] is recorded as 58%. Further, the “half life of cholinesterase inhibition” value in data set [13] was 120 to 140 h. For the same compound, the “inhibition of brain acetylcholinesterase” value in [14] is 70%. Further, the “activity of the precursor itself against acetylcholinesterase” value in the data set with acetylcholinesterase is given as “not active”. Besides, the “maximal level of acetylcholine, hippocampus and cortex” value in the data set with acetylcholine [15] (45 min) was 160 % of baseline. Moreover, in the data set with acetylcholine [15] (60 min), the “peak level of acetylcholine, striatum” value is recorded as 155 % of baseline. Besides, in data set [16], the absorption in humans result is on record as “rapidly absorbed” and the tolerance in humans entry is on record as “relatively few side effects”. For the same compound, the “time of return of acetylcholine to normal” value in the data set with acetylcholine [17] (80 mg/Kg intramuscular) was at most 120 min. Besides, the “increase in levels of acetylcholine” value in the data set on acetylcholine [17] (80 mg/Kg intramuscular, 45 min) amounted to 45%. For the same compound, in the data set with acetylcholine [17] (first administration), the “time at which acetylcholine returned practically to control levels” value turned out to be 90 min and the “time at which the peak value of acetylcholine was reached” value came out at 45 min. The “increase in acetylcholine levels after the first administration” value in the data set with acetylcholine [17] (rat brain, first of two consecutive administrations) turned out to be 45%. Moreover, the “duration of the acetylcholine increase after the second administration” value in the data set with acetylcholine [17] (second consecutive administration) turned out to be 120 min. Also, the “increase in acetylcholine after the second administration” value in the data set with acetylcholine [17] (second consecutive administration, highest dose allowing 100% survival) is 33%. The “inhibition of cholinesterase and acetylcholinesterase in blood” value in data set [18] is given as “up to 80%”.
For the compound `COP(=O)(OC)OC(Br)C(Cl)(Cl)Br` (stereo not drawn) [naled, 1,2-dibromo-2,2-dichlorvoethyl dimethyl phosphate], the “plasma cholinesterase inhibition compared with DDVP” value with plasma cholinesterase is “parallel to that by DDVP”. The “inherent cholinesterase inhibition activity” value in the data set with plasma cholinesterase (conclusion from comparison with DDVP) is reported as “without inherent cholinesterase inhibition activity of its own”.
For the compound `Nc1c2c(nc3ccccc13)CCCC2` [tetrahydroaminoacridine], in [1] (setting [19]), the animals with fasciculations is listed as 25% and the animals with tremor is recorded as 25%. In [1] (setting [20]), the “animals with facial and forelimb clonus” value is given as 10%; the “animals with generalized seizures” value came out at 4%; the “animals with increased salivation” value is listed as 60%; the animals with lacrimation stood at 40%. In data set [1] (setting [20]), the “animals with pronounced splay” value turned out to be 35% and the “interval between generalized seizures” value is 5 to 10 min.
